In publication PMC6316200, “Ceratinadins E and F, New Bromotyrosine Alkaloids from an Okinawan Marine Sponge Pseudoceratina sp” (Marine Drugs, 2018):
In brackets after ≈: the same amount, converted by molar mass. Like-named read-outs stand apart in the source and are kept apart here.

Experiments:
[1] = tested on: Plasmodium falciparum FCR3 strain; experiment: Antimalarial activity in vitro against drug-sensitive P. falciparum FCR3 strain; format: cell-based; details: for IC50: Plasmodium falciparum; for Selectivity Index MRC-5/FCR3: ratio of IC50 MRC-5 to IC50 FCR3
From the text: (§1) The antimalarial activities of psammaplysin F (3), ceratinadin E (1), and ceratinadin F (2) against a drug-resistant and a drug-sensitive strains of Plasmodium falciparum (K1 and FCR3 strains, respectively) were examined, see Table 2 [16].

[2] = tested on: Plasmodium falciparum K1 strain; experiment: Antimalarial activity in vitro against drug-resistant P. falciparum K1 strain; format: cell-based; details: for IC50: Plasmodium falciparum; for Selectivity Index MRC-5/K1: ratio of IC50 MRC-5 to IC50 K1
From the text: as §1

[3] = Cytotoxicity against MRC-5 cells; format: cell-based, human
[4] = tested on: MRC-5 (normal human embryonic lung fibroblast); experiment: Cytotoxicity against MRC-5 cells; format: cell-based
[5] = drug-sensitive P. falciparum strain FCR3, in vitro, read-out: Antimalarial Activity FCR3, IC50
[6] = drug-resistant P. falciparum strain K1, in vitro, read-out: Antimalarial Activity K1, IC50
[7] = human, MRC-5 cells (normal human embryonic lung fibroblasts)

Compound: CCN(CC)CCCC(C)Nc1ccnc2cc(Cl)ccc12 (centres unmarked) [Chloroquine, reference compound]
- IC50 ([1]; FCR3, read-out: Antimalarial Activity FCR3, IC50): 0.035 µg/mL (≈ 0.109 µM)
- IC50 ([2]; K1, read-out: Antimalarial Activity K1, IC50): 0.34 µg/mL (≈ 1.06 µM)
- IC50 ([3]; normal human embryonic lung fibroblast): > 25.8 µg/mL

Compound: CNCCc1cc(Br)c(OCCCNC(=O)N(C)CCc2cc(Br)c(OCCCNC(=O)C3=NO[C@]4(CC(Br)=C(OC)C(Br)=CO4)[C@@H]3O)c(Br)c2)c(Br)c1 [Ceratinadin E (1), ceratinadin E]
- IC50 [1, 5]: 0.77 µg/mL (≈ 0.676 µM)
- Selectivity Index MRC-5/FCR3 [1]: 20.8
- IC50 [2, 6]: 1.03 µg/mL (≈ 0.904 µM)
- Selectivity Index MRC-5/K1 [2]: 15.5
- IC50 [3, 7]: 16 µg/mL (≈ 14 µM)

Compound: C[C@@H]1CC[C@H]2[C@@H](C)C(=O)O[C@@H]3O[C@@]4(C)CC[C@@H]1[C@]32OO4 [Artemisinin, reference compound]
- IC50 [1, 5]: 0.0088 µg/mL (≈ 0.0312 µM)
- Selectivity Index MRC-5/FCR3 [1]: >1604.5
- IC50 [2, 6]: 0.01 µg/mL (≈ 0.0354 µM)
- Selectivity Index MRC-5/K1 [2]: >1412
- IC50 [3, 7]: > 14.1 µg/mL

Compound: CNCCc1cc(Br)c(OCCCNC(=O)N(C)CCc2cc(Br)c(OCCCNC(=O)N(C)CCc3cc(Br)c(OCCCNC(=O)C4=NO[C@]5(CC(Br)=C(OC)C(Br)=CO5)[C@@H]4O)c(Br)c3)c(Br)c2)c(Br)c1 [Ceratinadin F (2), ceratinadin F]
- antimalarial activity (in words) ([2]; P. falciparum in vitro, strain not named, only K1 examined for this compound): did not show significant antimalarial activity
- IC50 [2, 6]: > 12.5 µg/mL
- Selectivity Index MRC-5/K1 [2]: >4
- IC50 [3, 7]: > 50 µg/mL

Compound: psammaplysin F [Psammaplysin F (3)]
- Antimalarial Activity FCR3, IC50 ([1]; drug-sensitive P. falciparum strain FCR3, in vitro): 2.45 µg/mL
- Antimalarial Activity K1, IC50 ([2]; drug-resistant P. falciparum strain K1, in vitro): 3.77 µg/mL
- Cytotoxicity MRC-5, IC50 [4]: 12.65 µg/mL
